These results are taken from patent publication US5369030A, “Method of inducing cellular differentiations and altering cell phenotype using ceramide analogs” (Duke University, priority 1992, dated 1994).

Structures are written as SMILES. Where two headings read alike, the source gives them in different places. Some results are limits rather than exact numbers.

For series [1], the system named is HL-60 cells. The experiment in a line: HL-60 differentiation, H2O2 generation. The format is cell-based, human. On the procedure: (§1) Human myelocytic leukemia HL-60 cells (20-45 passages (American Type Culture Collection, Rockville, Md., accession no. CCL 240) were obtained and grown in RPMI 1640 medium (Sigma Chemical Co., St. Louis, Mo.) containing 10% fetal calf serum at 37° C. in 5% CO2 incubator at a cell density of 2×10^5 cells/mi. The cells were washed once with phosphate buffered saline (PBS) and resuspended in serum-free media containing insulin (5 mg/liter) and transferrin (5 mg/liter) for 2-3 hours before treatment with various compounds.
Therefore, 3 μM C14-L-t-APPD was applied to HL-60 cells either alone or in combination with subthreshold levels (0.3 nM) of 1,25-dihydroxyvitamin D3 (D3), and cell differentiation was determined at 60 and 108 hours following treatment by quantitating […] generation, a marker of HL-60 differentiation. Subthreshold levels of D3 refers to levels of D3 that are too low to induce differentiation of HL60 cells.
H2 O2 production was quantitated as described in Goodwin, B. J. and Weinberg, J. B., J. Clin. Invest. 70:699-706 (1982) and Pick, E. and Mizel, D. J. Immunol. Methods 46: 211-226 (1981). For comparison, HL60 cell differentiation obtained with 2 μM C2-ceramide alone and 0.3 nM vitamin D3 are were also determined.

Series [2] concerns sphingomyelin in HL-60 cells. To be noted: previous study, Okazaki, T., et al.; cited from earlier work.
Series [3] has as its system HL-60 cells. The experiment in a line: HL-60 differentiation, reduction of Nitro blue tetrazolium (NBT). Type of series: cell-based, human. To be noted: 3 μM, three days; for cells acquiring the ability to reduce NBT: control cells 10%. As for the experimental part: as §1
HL-60 cells were treated with 3 μM of C14-D-e-APP-1 or 3 μM C14-L-e-APP-1 for three days in accordance with the procedure described in Example 3D. Cell differentiation was determined by the ability of differentiated cells to reduce Nitro blue tetrazolium (NBT) as described in Okazaki, T. et. al., J. Biol. Chem. 265:15823-15831 (1990).

Series [4] has as its system HL-60 cells. Briefly: HL-60 cell growth/proliferation, cells counted with a hemocytometer. The format is cell-based, human. The following applies: for IC50 / activity at 1 µM / activity at 2 µM / activity at 3 µM / activity at 4 µM / activity at 5 µM: Homo sapiens; for IC50: read-out: IC50%; for cell density: starting density 2×10^5 cells/ml. As for the experimental part: as §1
HL-60 cells were treated with 3 μM of Cn-L-t-APPD with acyl chain lengths of C6, C8, C10, C12, C14, C16, and C18 (m=4, 6, 8, 10, 12, 14 and 16) in fresh ehtanol solution or with an ethanol vehicle and cell growth was determined following three days of treatment. Cell growth was quantified using a hemocytometer. Cell viability was judged by the ability to exclude trypan blue dye. Viability was always more than 80% unless otherwise described.
HL-60 cells (starting cell density of 2×10^5 cells/ml) were treated with different concentrations of C14-L-t-APPD and cells were counted following 24 and 72 hours of treatment. The results are representative of three experiments. A 1μM dose of C14-L-t-APPD had little or no effect on cell growth at 24 or 72 hours (approximately 105% and 130% of control, respectively). A 2μM dose inhibited cell growth to approximately 65% of the control at both 24 and 72 hours. […] The IC50% was approximately 2 μM (10 fmol/cell). IC50% is the concentration of test compound that causes 50% inhibition of cell growth in comparison with controls. Thus, similar to results with C2-ceramide, C14-APPD inhibited cell proliferation at different durations of treatment.
HL-60 cells (starting cell density of 2×10^5 cells/ml) were treated with 3 μM Cn-L-t-APPD derivatives with N-acyl chain lengths of C6, C8, C10, C12, C14, C16, and C18 (m=4,6,8,10, 12, 14, and 16) and cells were counted at 0, 12, 36, 60, 84 and 108 hours post treatment. The results are representative of 3 experiments.
N-acyl derivatives of 2-amino-1-(4'-nitrophenyl)-1,3-propanediol (Cn-D-t-ANPPD) were tested to determine the effects of chain length on HL-60 cell growth as described in Examples 3 A. HL-60 cells (at a starting cell density of 2×10^5 cells/ml) were treated with 3 μM of the diff analogs (C6, C8, C10, C12, C14, C16 and C18) of Cn-D-t-ANPPD, and cell growth was determined at three days. The control received no Cn-D-t-ANPPD. Treatment of HL-60 cells with C2-ceramide is included for comparison.
HL-60 cells were treated with the indicated concentrations and cell growth was determined following three days of treatment as described in Example 3B.
The suitability of phenylaminopropanediol derivatives as analogs of ceramide allowed further investigation of the structural requirements for ceramide-mediated biology. For these experiments, C14 (N-myristoyl) derivatives of different phenylaminoalcohols were synthesized and examined for their biologic activity. HL-60 cells (starting cell density of 2×10^5 cells/ml) were treated with 3 μM of C14 derivatives C14-L-t-APPD, C14-D-t-ANPPD, C14-D-e-APP-1, C14-L-e-APP-1, C14-APP-3 and C14-D-APP3. The structures of these compounds are provided in Table I. Cell growth was determined at 3 days as described in Example 3A. The results shown are averages of two determinations, and are representative of five different experiments.
and C14-L-e-APP-1 HL-60 cells were treated as described in Example 3B. growth was determined after 3 days of treatment.

Series [5] has as its system HL-60 cells. Briefly: Uptake of [3H]-labeled compounds. The following applies: [3H]-labeled compound. Type of series: cell-based, human. As for the experimental part: (1R, 2S) 2-(N-[^3 H]-myristoylamino)-1-phenyl-1propanol ([^3 H] C14-L-e-APP-1) and (1S, 2R) 2-(N-[^3 H]-myristoylamino)-1-phenyl-1-propanol ([^3 H]C14-D-e-APP-1) were prepared following the general procedures of Example 1 for synthesis of N-acyl-amino alcohols using [^3 H]-myristoyl chloride. Specific activity was ~3×10^3 cpms/nmol. [^3 H] myristoyl chloride was made from 9,10-[^3 H]-myristic acid and oxalyl chloride in dry benzene.
In studies using [^3 H]-labeled C14-D-e-APP-1 and C14-L-e-APP-1, uptake of the two compounds was nearly identical with 21% of [3 H]-C14-D-e-APP-1 taken up and 20% of [3 H]-C14-L-e-APP-1 taken up.

Series [6] relates to HL-60 cells. The following applies: Okazaki et al.; cited from earlier work.
Series [7] deals with HL-60 cells. The following applies: Okazaki et al.; cited from earlier work. The source holds these as a separate data set.
The mark [8] stands for this setting: Example 5, 3 μM C14 derivatives, 3 days.
[9] abbreviates: HL-60, 72 h, Example 5, Table IV, 3 days, read-out: CELL GROWTH (% OF CONTROL).
Setting [10] is: HL-60, 72 h, Example 5, Table IV, 3 μM, 3 days, read-out: CELL GROWTH (% OF CONTROL).
The mark [11] stands for this setting: HL-60, 24 h, Example 3B, 24 hours, read-out: cell growth, % of control.
Where [12] appears, read: HL-60, 72 h, Example 3B, 72 hours, read-out: cell growth, % of control.

In the case of `C=C1/C(=C\C=C2/CCC[C@]3(C)[C@@H]([C@H](C)CCCC(C)(C)O)CC[C@@H]23)C[C@@H](O)C[C@@H]1O` [1,25-dihydroxyvitamin D3, reference compound], the H2O2 generation result with HL-60 cells [1] (0.3 nM 1,25-dihydroxyvitamin D3, 60 hours) is “approximately 0.4 nmol H2O2 /10^5 cells”; in the series on HL-60 cells [1] (0.3 nM 1,25-dihydroxyvitamin D3, 108 hours), approximately 0.2 nmol/10^5 cells. In addition, the “hydrolysis of sphingomyelin (in words)” value in series [2] is recorded as “caused hydrolysis of sphingomyelin in HL-60 cells”.

By IC50 is commonly meant the concentration needed to halve the response being measured. `CCCCCCCCCCCCCC(=O)N[C@H](C)[C@@H](O)c1ccccc1` [C14-D-e-APP-1]: the “cells acquiring the ability to reduce NBT” value with HL-60 cells [3] is given as 42%. The “IC50% per cell number” value in the series with HL-60 cells [4] (Example 5, Table IV experiment, HL-60 growth, 3 days) worked out at 125 fmol/10^5 cells. Further, the “cell growth, % of control” value with HL-60 cells [4] (setting [8]) is “approximately 15%”. For the same molecule, the “activity relative to reference (in words)” value with HL-60 cells [4] (Example 5, 3 μM, 3 days, inhibition of cell growth) is given as “as effective as C2-ceramide”. In the series on HL-60 cells [4] (72 h, Example 5, Table IV experiment, HL-60 growth, 3 days), the IC50 was determined as 2.5 µM. Further, in the series on HL-60 cells [4] (setting [9]), the activity at 1 µM was 100%, the activity at 2 µM worked out at 71%, the activity at 4 µM was determined as 20% and the activity at 5 µM was 10%. The activity at 3 µM with HL-60 cells [4] (setting [10]) turned out to be 45%.

On to `CCCCCCCCCCCCCC(=O)N[C@@H](C)[C@H](O)c1ccccc1` [C14-L-e-APP-1], for which the “level of differentiation (in words)” value with HL-60 cells [3] (NBT reduction) is “little activity over control”. Moreover, in the series with HL-60 cells [3], the “cells acquiring the ability to reduce NBT” value was 12%. The “inhibition of HL-60 cell growth (in words)” value with HL-60 cells [4] (Example 5, Table IV experiment, 1-5 μM, 3 days) is “no activity”. In addition, the “cell growth, % of control” value in the series with HL-60 cells [4] (setting [8]) was 87%. Besides, in the series with HL-60 cells [4] (setting [9]), the activity at 1 µM came out at 101%, the activity at 2 µM worked out at 100%, the activity at 4 µM is 100% and the activity at 5 µM turned out to be 99%. Further, the activity at 3 µM in the series on HL-60 cells [4] (setting [10]) turned out to be 99%.

For `CCCCCCCCCCCCCC(=O)N[C@@H](CO)[C@@H](O)c1ccccc1` [C14-L-t-APPD, N-MYRISTOYL-L-THREO-2-AMINO-1-PHENYL-1,3-PROPANDIOL], the “effect of combination on cell differentiation (in words)” value in the series with HL-60 cells [1] (3 μM C14-L-t-APPD + 0.3 nM 1,25-dihydroxyvitamin D3) is “synergistic effect on cell differentiation”. Also, the “H2O2 generation, combination” value in the series with HL-60 cells [1] (3 μM C14-L-t-APPD + 0.3 nM 1,25-dihydroxyvitamin D3, 60 hours) is reported as “approximately 1.1 nmol H2O2 /10^5 cells”; in the series with HL-60 cells [1] (3 μM C14-L-t-APPD + 0.3 nM 1,25-dihydroxyvitamin D3, 108 hours) it was approximately 1.0 nmol H2O2 /10^5 cells. For the same molecule, the H2O2 generation result is listed as “approximately 0.3 nmol/10^5 cells” in the series on HL-60 cells [1] (3 μM C14-L-t-APPD alone, 60 hours) and approximately 0.5 nmol/10^5 cells with HL-60 cells [1] (3 μM C14-L-t-APPD alone, 108 hours). Moreover, in the series with HL-60 cells [1] (3 μM C14-L-t-APPD vs 2 μM C2-ceramide), the “effect on differentiation relative to C2-ceramide (in words)” value is “nearly identical to those of 2 μM C2-ceramide”. Further, in the series with HL-60 cells [4] (Example 3A, 3 μM Cn-L-t-APPD, three days), the “cell growth, % of control” value is reported as approximately 15%. For the same molecule, the IC50% per cell entry in the series on HL-60 cells [4] (Example 3B, 50% inhibition of cell growth, 2×10^5 cells/ml) is reported as “approximately 10 fmol/cell”. Besides, the “potency relative to C2-ceramide (in words)” value with HL-60 cells [4] (Example 3C, 3 μM) is “equally potent to C2-ceramide”. The cell density came out at 100000 mL⁻¹ with HL-60 cells [4] (Example 3C, 3 μM, 84 hours) and 200000 mL⁻¹ in the series with HL-60 cells [4] (Example 3C, 3 μM, 108 hours). Besides, the “inhibition of cell growth (in words)” value in the series on HL-60 cells [4] (Example 3C, 3 μM, time course to 108 hours) is given as “able to inhibit cell growth by significant amounts”. The activity at 1 µM is approximately 105% in the series with HL-60 cells [4] (setting [11]) and approximately 130% with HL-60 cells [4] (setting [12]). Also, the activity at 2 µM in the series with HL-60 cells [4] (setting [11]) and in the series on HL-60 cells [4] (setting [12]) was approximately 65% throughout. Also, the activity at 3 µM is less than 10% in the series with HL-60 cells [4] (HL-60, 24 h, Example 3B, 3 μM, 24 hours, read-out: cell growth, % of control) and less than 10% with HL-60 cells [4] (HL-60, 72 h, Example 3B, 3 μM, 72 hours, read-out: cell growth, % of control). In addition, the activity at 4 µM in the series with HL-60 cells [4] (setting [11]) and in the series with HL-60 cells [4] (setting [12]) was less than 10% each time. In the series on HL-60 cells [4] (HL-60, Example 3B, 50% inhibition of cell growth, 2×10^5 cells/ml, 24 and 72 hours), the IC50 was approximately 2 µM.

In the series on HL-60 cells [5], `[3H]C(CCCC)C([3H])CCCCCCCC(=O)N[C@H](C)[C@@H](O)c1ccccc1` (stereo partly drawn) [[3 H]-C14-D-e-APP-1, (1S, 2R) 2-(N-[^3 H]-myristoylamino)-1-phenyl-1-propanol] returned an uptake of 21%.

`[3H]C(CCCC)C([3H])CCCCCCCC(=O)N[C@@H](C)[C@H](O)c1ccccc1` (stereo partly drawn) [[3 H]-C14-L-e-APP-1, (1R, 2S) 2-(N-[^3 H]-myristoylamino)-1-phenyl-1propanol] gave an uptake in the series on HL-60 cells [5] of 20%.

In the case of `CCCCCCCCCCCCC/C=C/[C@@H](O)[C@@H](N)CO` [sphingosine, Sphingosine], in the series with HL-60 cells [6], the “HL-60 cell differentiation (in words)” value was “do not mimic the effects of ceramide on cell differentiation”. Further, the “HL-60 cell growth (in words)” value with HL-60 cells [7] is listed as “inhibit HL-60 cell growth”.
